Experimental data published in PubChem BioAssay (NCI).
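Growth conditions: 96-well plates. Treatment: test compound, 48 hours, 5 concentrations. Analysis: linear interpolation between bracketing concentrations; unreached endpoints set to highest concentration. Here, GI50 denotes the concentration required for 50% inhibition of growth. TGI denotes the concentration required for complete inhibition of growth.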

Key:
Experiment in all cases: DTP human tumour cell line panel, 48 h
[1] = system: LOX IMVI melanoma
[2] = system: HCT-15 colon
[3] = system: SNB-19 CNS
[4] = system: HOP-62 NSCLC
[5] = system: SNB-75 CNS
[6] = system: OVCAR-3 ovarian
[7] = system: SK-OV-3 ovarian
[8] = system: NCI-H23 lung
[9] = system: UACC-62 melanoma
[10] = system: COLO 205 colon

| Structure (SMILES) | GI50 [1] [nM] | TGI [1] [µM] | GI50 [2] [µM] | TGI [2] [µM] | GI50 [3] [µM] | TGI [3] [µM] | GI50 [4] [µM] | TGI [4] [µM] | GI50 [5] [nM] | TGI [5] [µM] | GI50 [6] [nM] | TGI [6] [µM] | GI50 [7] [µM] | TGI [7] [µM] | GI50 [8] [nM] | TGI [8] [µM] | GI50 [9] [nM] | TGI [9] [µM] | GI50 [10] [µM] | TGI [10] [µM] |
| --- | --- | --- | --- | --- | --- | --- | --- | --- | --- | --- | --- | --- | --- | --- | --- | --- | --- | --- | --- | --- |
| O=C1Nc2ccccc2/C1=C/c1cn(CC(O)Cn2cc(/C=C3\C(=O)Nc4ccccc43)c3ccccc32)c2ccccc12 (configuration not stated) | 326 | 1.31 | 1.77 | 3.71 | 1.21 | 3.82 | 1.41 | 3.06 | 1330 | 2.92 | 1650 | 3.3 | 1.65 | 3.68 | 1570 | 3.36 | 1640 | 3.16 |  |  |
| CCCCN1C(=O)/C(=c2\sc3n(c2=O)C2C(NN=3)N(CC)C(=O)N2CC)c2ccccc21 (configuration not stated) |  |  |  |  | 1.61 | 28.1 | 1.21 | 4.95 | 258 | 1.56 |  |  | 0.911 | 5.89 | 1770 | > 35 | 502 | 3.55 |  |  |
| c1cc[c]([Sn]([O]c2cccc3cccnc23)([O]c2cccc3cccnc23)[c]2ccccc2)cc1 | 198 | 0.424 | 0.186 | 0.377 |  |  | 5.26 | 17.9 | 419 | 1.45 |  |  | 1.83 | 3.24 | 209 | 0.5 | 223 | 0.502 | 1.07 | 2.28 |
| Oc1c(O)c(Cl)c(Cl)c(Cl)c1Cl | 3650 | 20.3 | 3.56 | 19.4 |  |  | 4.54 | 17.3 | 2520 | 21 | 2440 | 14.4 | 16 | 44.5 | 3040 | 9.28 | 2950 | 10.2 | 12.5 | 33.7 |
| C1CC2=C(C1)C1=S(S2)SC2=C1CCC2 |  | > 100 |  | > 100 |  | > 100 |  |  |  | > 100 |  | > 100 |  | > 100 |  | > 100 |  | > 100 |  | > 100 |
| C=C1C(=O)O[C@H]2[C@H]1CC/C(COC(=O)NCCc1cccc(OC)c1)=C\CC[C@@]1(C)O[C@@H]21 | 1340 | 2.81 | 1.02 | 2.62 | 1.43 | 3.13 | 4.39 | 16.6 | 1470 | 4.71 | 995 | 2.38 | 13.6 | 27.7 | 1860 | 4.33 |  |  | 1.55 | 3.28 |
| Cc1cn2c(/C=N/N=C(N)N)c(-c3ccncc3)nc2s1 | 14900 | 28.1 | 44.1 | > 100 | 16.4 | 31.3 | 14.9 | 28.1 |  |  | 17500 | 33.6 |  |  | 16600 | 30.2 | 19000 | 34.1 | 17.5 | 33.3 |
| CC1(C)C(=O)C(=Cc2ccco2)C1=O |  | > 100 |  | > 100 |  |  |  |  |  | > 100 |  |  |  | > 100 |  | > 100 |  | > 100 |  | > 100 |
| COc1ccc(-c2nc(N)c(C#N)c3c2CCOc2c-3ccc3ccccc23)cc1 |  |  | 59.4 | > 100 | 24.2 | 91 | 20.8 | 49.7 | > 100000 | > 100 |  |  | 17.4 | 55 | 19400 | 61.9 |  |  | 7.61 | > 100 |
| CCN(CC)c1nc(NC2CCCCC2)c2nc(N(CC)CC)nc(NC3CCCCC3)c2n1 |  |  |  | > 100 |  | > 100 |  | > 100 |  |  |  | > 100 |  | > 100 |  | > 100 |  | > 100 |  |  |
| CC12OC(C(=O)C13CCC3)C1C(=O)c3ccc4c(ccc5ccccc54)c3C(=O)C12 (configuration not stated) |  |  | 4.27 | 22.4 | 21.5 | 65.7 | 25.2 | 53.4 | 18100 | 37.7 | 388 | 2.47 | 26.5 | 80.5 | 10500 | 23.6 | 35400 | > 100 | 11.2 | 33.1 |
| O=c1c2cccnc2ncn1CCCN1CCCC1 |  | > 100 |  |  |  | > 100 |  | > 100 |  | > 100 |  | > 100 |  | > 100 |  | > 100 |  | > 100 |  | > 100 |
| COC(=O)/C(=C/c1ccc(OC)cc1)C(C(=O)O)=C1CCCCC1 |  | > 100 |  | > 100 |  | > 100 |  | > 100 |  | > 100 |  |  |  | > 100 |  | > 100 |  | > 100 |  | > 100 |
| Cc1ccc(O)c(NC2=C(Cl)C(=O)N(Cc3ccccc3)C2=O)c1 | 20300 | 45.7 | 25.3 | 72.6 | 46 | > 100 | 25.4 | 72.5 |  |  | 14900 | 32.9 | 80.5 | > 100 | 25800 | 68.6 | 17000 | 36.8 | 28.4 | > 100 |
| COc1cc2c(c(OC)c1OC)-c1ccc(SC)c(=O)cc1C(CC(=O)Oc1cccc(F)c1)C2 (configuration not stated) |  | 10.8 |  | 1.97 |  | > 100 |  | > 100 |  |  |  | 0.305 |  | 16.1 |  | 0.805 |  | 1.07 |  | 0.555 |
| C=Cc1c(C)c2cc3[nH]c(cc4nc(cc5nc(cc1[nH]2)C(C)=C5CCC(=O)N(CC)CC)C(CCC(=O)N(CC)CC)=C4C)c(C)c3C=C |  | > 100 |  | > 100 |  |  |  | > 100 |  | 88.3 |  | > 100 |  | > 100 |  | > 100 |  | > 100 |  |  |
| COc1cc2nc(-c3cccc4cccnc34)nc(NC3CCN(Cc4ccccc4)CC3)c2cc1OC |  |  | 1.11 | 2.43 | 1.34 | 3.16 | 1.23 | 3.05 | 1840 | 3.56 | 1520 | 3.08 | 1.56 | 3.22 | 1370 | 3.11 | 2000 | 4.02 |  |  |
